Assay results reported in BindingDB's records for doi:10.1021/jm9606599 (National Institute of Diabetes and Digestive and Kidney …, 1997).

Assay: Sigma receptor binding was determined by labeling with radioligand [3H](+)-pentazocine on frozen membranes obtained from frozen guinea pig brain

Fc1ccc(C(OCCN2CCN(C/C=C/c3ccco3)CC2)c2ccc(F)cc2)cc1 [1-{2-[Bis-(4-fluoro-phenyl)-methoxy]-ethyl}-4-((E)-3-furan-2-yl-allyl)-piperazine] and Fc1ccc(C(OCCN2CCN(C/C=C/c3cccs3)CC2)c2ccc(F)cc2)cc1 [1-{2-[Bis-(4-fluoro-phenyl)-methoxy]-ethyl}-4-((E)-3-thiophen-2-yl-allyl)-piperazine] are within 1.5-fold of each other in IC50: 43 nM for the first, 41 nM for the second.

Going from Fc1ccc(C(OCCN2CCN(CCCc3cccs3)CC2)c2ccc(F)cc2)cc1 [1-{2-[Bis-(4-fluoro-phenyl)-methoxy]-ethyl}-4-(3-thiophen-2-yl-propyl)-piperazine] to Fc1ccc(C(OCCN2CCN(CCCc3ccco3)CC2)c2ccc(F)cc2)cc1 [1-{2-[Bis-(4-fluoro-phenyl)-methoxy]-ethyl}-4-(3-furan-2-yl-propyl)-piperazine], the IC50 rises from 38 nM to 62 nM (1.6-fold).

Fc1ccc(C(OCCN2CCN(CCCc3cccnc3)CC2)c2ccc(F)cc2)cc1 [1-{2-[Bis-(4-fluoro-phenyl)-methoxy]-ethyl}-4-(3-pyridin-3-yl-propyl)-piperazine] and Fc1ccc(C(OCCN2CCN(C/C=C/c3cccnc3)CC2)c2ccc(F)cc2)cc1 [1-{2-[Bis-(4-fluoro-phenyl)-methoxy]-ethyl}-4-((E)-3-pyridin-3-yl-allyl)-piperazine] are within 1.5-fold of each other in IC50: 79 nM for the first, 59 nM for the second.

With Fc1ccc(C(OCCN2CCN(C/C=C/c3ccccc3)CC2)c2ccc(F)cc2)cc1 the IC50 was 51 nM.
